Laboratory results reported in ChEMBL document CHEMBL3507680, “University of Dundee, Gates Library screen for HepG2 cell viability”.

Assay: Human HepG2 cell viability assay in 384 well format
Type: toxicity, cell-based
Parameters: dose 125 nL, time 70.5 hour; concentration not given beside the values
Settings: HepG2 cells, read-out: Inhibition

| SMILES | cytotoxicity at 70.5 h [%] |
| --- | --- |
| Fc1cccc(CN2CCC[C@H](Cn3nnc(-c4ccccn4)n3)C2)c1 | -4.05 |
| Fc1cccc(CN2CCC[C@@H](Cn3nnc(-c4ccccn4)n3)C2)c1 | -5.77 |
| Fc1ccccc1CN1CCC[C@@H](Cn2nnc(-c3cccs3)n2)C1 | -3.35 |
| CC(NC(=O)C1CCCCC1)c1cc(O)nc(-c2cccnc2)n1 (configuration not stated) | -4.35 |
| CC(C)C(NC(=O)C1CC1)c1cc(O)nc(-c2cccnc2)n1 (configuration not stated) | -0.322 |
| COc1ccc(-c2cc(C3CCCCCN3S(C)(=O)=O)on2)cc1 (configuration not stated) | -2.6 |
| C=Cn1cc(CN2CCC(c3ncc(Cl)cc3S(C)(=O)=O)CC2)c(C)n1 | -3.31 |
| CCn1cc(CN2CCC(c3ncc(Cl)cc3S(C)(=O)=O)CC2)c(C)n1 | 0.165 |
| C=Cn1ncc(CN2CCC(c3ncc(Cl)cc3S(C)(=O)=O)CC2)c1C | 10 |
| CC(C)(C)c1ccc(C(=O)NCCCNC(=O)c2cnccn2)cc1 | -3.26 |
| COc1ccc(-c2cc3nc(CCNC(=O)C4CC4)nn3cn2)cc1 | 16.8 |
| COCC(=O)NCCc1nc2cc(-c3ccc(OC)cc3)ncn2n1 | -5.33 |
| COc1ccc(-c2cc3nc(CCNC(=O)CN(C)C)nn3cn2)cc1 | -1.8 |
| CN(C)S(=O)(=O)N1CCCCCC1c1cc(-c2ccc(F)cc2)no1 (configuration not stated) | 1.28 |
| O=C(NC1CC1)[C@H]1CN(Cc2ccccc2)C[C@@H]1C(=O)c1ccccc1 | -3.57 |
| CNC(=O)[C@@H]1CN(Cc2ccccc2)C[C@H]1C(=O)c1ccc(F)cc1 | -1.84 |
| O=C(c1ccccc1F)N1CCCC1Cn1c(=O)oc2ccccc21 (configuration not stated) | -0.201 |
| Cc1nn(CCC(=O)NC2CCCOC2)c(C)c1C (configuration not stated) | -1.37 |
| CN(CCc1ccncc1)Cc1c(C2CCCC2)[nH]c2ncccc12 | -1.56 |
| CC(=O)N1CCCC1CCc1ccc(Cl)nn1 (configuration not stated) | -2.45 |
| Cc1ccncc1CN1CCOCC1c1[nH]ncc1C (configuration not stated) | -1.54 |
| Cc1cn[nH]c1C1COCCN1Cc1c[nH]cn1 (configuration not stated) | 4.32 |
| CC1(c2nccs2)CCN(C(=O)CCN2CCOCC2)CC1 | -1.94 |

| SMILES | cytotoxicity at 70.5 h [%] |
| --- | --- |
| CN1CCN(CC2(O)CCCN(S(=O)(=O)c3cn[nH]c3)CC2)CC1 (configuration not stated) | -3.77 |
| CN1CCCC1CCNC(=O)c1ccccc1-n1cc(CN)cn1 (configuration not stated) | 1.23 |
| CN(C)Cc1cccc(-c2cccnc2C(=O)NCc2ccco2)c1 | -4.14 |
| O=C(Cc1ccc(Cl)cc1)N[C@@H]1CCC[C@@H](O)[C@@H]1O | -0.327 |
| O=C(CCn1ccnc1)N1CC[C@H](Oc2ccc(F)cc2)[C@@H](O)CC1 | 0.282 |
| CC(C)(C(=O)N[C@@H]1CCC[C@@H](O)[C@@H]1O)c1cccc(F)c1 | -4.01 |
| Cc1cc(C)c2cc(CNCCCN3CCOCC3)c(=O)[nH]c2c1 | -7.01 |
| O=c1[nH]c2ccccc2cc1CNCCCN1CCOCC1 | -1.38 |
| O=C1NCC2(CCCN(Cc3ccncc3)C2)Oc2ccccc21 (configuration not stated) | -8.47 |
| Cc1csc(C(Cc2ccsc2)NC(=O)C2CCN(S(C)(=O)=O)CC2)n1 (configuration not stated) | -10 |
| Cc1nc2cc(C3CCN(Cc4ccccc4F)C3)nn2c(O)c1C (configuration not stated) | -3.81 |
| CCS(=O)(=O)N1CCC(C(=O)NC(Cc2ccsc2)c2nccs2)CC1 (configuration not stated) | 18.9 |
| CCc1ncc(CN2CCc3nc4sc(C)cc4c(=O)n3CC2)cn1 | 17.6 |
| O=C(Cn1cccnc1=O)NC(Cc1ccsc1)c1nccs1 (configuration not stated) | 17.6 |
| Cc1nc(C2CCN(C(=O)c3ccn(C)n3)CC2)c2sccn12 | -5.98 |
| Cc1nc(C2CCN(C(=O)c3ccnn3C)CC2)c2sccn12 | -3.95 |
| COc1ncc(C(=O)N2CCC(c3nc(C)n4ccsc34)CC2)cn1 | 24.2 |
| CS(=O)(=O)c1snnc1C1CCN(Cc2ccc3nccnc3c2)CC1 | -5.73 |
| Cc1cc(C)c2cc(CNCc3ccc(C)o3)c3nn(C)c(=O)n3c2c1 | -5.87 |
| Cc1ccc2cc(CNCCN3CCCC3)c(=O)[nH]c2c1 | -0.158 |
| CCCn1ncc(CN2C[C@@H]3CCCN3C[C@H]2Cc2ccccc2)c1C | 23.6 |
| C=Cn1ncc(CN2C[C@@H]3C[C@@H](O)CN3C[C@@H]2Cc2ccccc2)c1C | 1.04 |
| CNc1cccc(C2CCCN(C(=O)c3cccnc3)C2)n1 (configuration not stated) | 20.4 |

| SMILES | cytotoxicity at 70.5 h [%] |
| --- | --- |
| COc1cc(CN2CCC3(CC(Nc4ccncn4)C3)C2)cc(OC)c1 (configuration not stated) | 0.186 |
| CN(C)Cc1ccnc(C2CCCN2Cc2ccc3ncccc3c2)n1 (configuration not stated) | 1.4 |
| Cc1cccnc1CN1CCC2(CC(Nc3ccncn3)C2)C1 (configuration not stated) | 1.25 |
| COc1cccc(CN2CCC3(CC(Nc4ccncn4)C3)C2)c1F (configuration not stated) | 2.19 |
| CC(C)N1CCC(Cc2cncc(-c3cc(F)ccc3C(=O)O)n2)CC1 | 0.0602 |
| Cc1ccccc1-c1cncc(C2CCN(CC(=O)N(C)C)CC2)n1 | -3.4 |
| C=Cn1ncc(CN2C[C@@H]3CCCN3C[C@H]2Cc2ccccc2)c1C | 14.6 |
| O=C(N[C@@H]1CCC[C@@H](n2ccnc2)[C@@H]1O)c1ccc2c(c1)CCCC2 | 30.9 |
| Nc1nc2nc(C3CCN(C(=O)c4cscn4)C3)ccc2s1 (configuration not stated) | -5.85 |
| Cn1ccc(C(=O)N2CCC(Cc3cnc4[nH]ccc4c3)C2)n1 (configuration not stated) | -7.96 |
| CNC(=O)c1cccc(C2CNCCN2C(=O)C2CCNCC2)c1 (configuration not stated) | -5.44 |
| CCc1cc(O)nc(C2CCCN2C(=O)c2cc(CC)on2)n1 (configuration not stated) | -5.67 |
| Cc1cc(C)nc(Nc2cccc(C3CCCN(CCO)C3)n2)n1 (configuration not stated) | -4.13 |
| Cc1n[nH]c(C)c1NC(=O)CCc1cccc(C2CCCN(C)C2)n1 (configuration not stated) | -3.99 |
| Cc1cccc(C2CCCN(C(=O)c3ccncc3)C2)n1 (configuration not stated) | -7.3 |
| COCC(=O)N1CCOC(c2ccc(N(C)C)cn2)C1 (configuration not stated) | 15.3 |
| Cc1nc(C)c(C(=O)Nc2cnn(CC(=O)NC3CCCC3)c2)s1 | 14.1 |
| Cn1ccc(C(=O)N2CCCC(Cc3cccc4cccnc34)C2)n1 (configuration not stated) | 11.6 |
| COc1cccc(C(=O)NC(c2ccccn2)[C@H]2CC[C@H](CN)CC2)c1 (some centres not stated) | -8.19 |
| CNc1cc(CNC(=O)c2ccccc2OC)nc(-c2ccncc2)n1 | 12.5 |
| CNc1ccc(CC2CCCN(C(=O)c3cnccn3)C2)nn1 (configuration not stated) | -14.4 |
| CNc1ccc(CC2CCCN(C(=O)c3c(C)noc3C)C2)nn1 (configuration not stated) | -13.8 |
| O=C(C1CCC1)N1CCCC(c2cccc(-n3ccnc3)n2)C1 (configuration not stated) | -6.13 |

| SMILES | cytotoxicity at 70.5 h [%] |
| --- | --- |
| COCC(=O)N1CCCC1c1csc(Nc2cnccn2)n1 (configuration not stated) | -10.2 |
| Cc1cncc(C2CCN(Cc3cccn3C)CC2)n1 | 11.8 |
| COc1ncc(CN2CCCC(c3[nH]ncc3S(C)(=O)=O)C2)cn1 (configuration not stated) | -7.31 |
| CNc1cncc(C2CCCN2Cc2cccc(C)n2)n1 (configuration not stated) | -6.12 |
| O=C(Cc1ccsc1)N1CCC(O)(CN2CCc3ccccc3C2)C1 (configuration not stated) | -5.49 |
| Cc1ccc(C(=O)N2CCCCC2c2[nH]ncc2S(C)(=O)=O)s1 (configuration not stated) | 12.5 |
| Cn1cccc1C(=O)N1CCCCC1c1[nH]ncc1S(C)(=O)=O (configuration not stated) | -5.18 |
| O=C(N[C@@H]1CN(Cc2cccc3[nH]ccc23)C[C@H]1O)c1cscn1 | -4.99 |
| COc1ccc(CN2CCOC(CCc3ccnc(N)c3)C2)cc1 (configuration not stated) | -0.852 |
| CCN(CC)S(=O)(=O)NCC1COc2ccccc2O1 (configuration not stated) | 24.9 |
| CCc1nnc(CN2CCc3ccc(S(N)(=O)=O)cc32)o1 | -0.999 |
| CN(C(=O)c1ccccc1N(C)S(C)(=O)=O)c1ccc(C(C)(C)C)cc1 | 5.15 |
| Cc1ncsc1C(=O)N1CCCC1c1c(C)nn(C)c1C (configuration not stated) | -1.63 |
| O=S(=O)(NCc1ccnc(-n2ccnc2)c1)c1cncc(Cl)c1 | -0.226 |
| CCN(Cc1cnc(C)cn1)C1CCN(c2ccccc2)C1=O (configuration not stated) | 2.9 |
| CCOCCC(=O)N(CCC#N)c1ccc(C)c(C)c1 | -1.94 |
| CC(C(=O)NCc1ccc2c(c1)OCCO2)n1cncn1 (configuration not stated) | 31.8 |
| O=C(CCn1cccn1)NCCOc1ccc2c(c1)OCO2 | -6.03 |
| O=C(CCOc1ccc(Cl)cc1)NCCCn1cccn1 | 23.1 |
| N#Cc1cccnc1N1CCC(Nc2ccccc2)C1 (configuration not stated) | -8.64 |
| Cc1ccc(C(=O)NC2CCN(S(C)(=O)=O)CC2)c(=O)[nH]1 | -14.3 |
| Cc1nn(CC(=O)NCC2(C(N)=O)CCOCC2)c(C)c1Cl | -8.87 |
| Cc1nn(C)c(Cl)c1C(=O)NCC1(C(N)=O)CCOCC1 | -11.7 |

| SMILES | cytotoxicity at 70.5 h [%] |
| --- | --- |
| Cc1ncc2c(n1)CN(Cc1nc(-c3ccsc3)oc1C)CC2 | -15.2 |
| CC(C)NC(=O)CN(C)C(=O)c1csc(Cc2ccccc2F)n1 | -6.85 |
| Cc1nc(COC(=O)c2cccc3c2OCCO3)no1 | 23.5 |
| N#CC1COCCN1C(=O)c1ccc2cc[nH]c2c1 (configuration not stated) | -9.25 |
| CC(C)NC(=O)CNC(=O)c1csc(Cc2ccccc2F)n1 | -4.54 |
| Cn1cc(CN2CCS(=O)(=O)C(C)(C)C2)cn1 | -9.13 |
| Cc1nc(COC(=O)c2cccnc2C)no1 | -5.39 |
| CCCC(C#N)NC(=O)c1sccc1CC (configuration not stated) | -12.4 |
| CCc1ncc2c(n1)CN(Cc1nc(-c3ccco3)oc1C)CC2 | -7.47 |
| COc1cc(NC2CCCN(c3ncccc3C#N)C2)cc(OC)c1 (configuration not stated) | 23 |
| CCN(C)Cc1cccc(CNC(=O)CSCc2ccccn2)c1 | -15.2 |
| CC(NCc1cccc(NC(=O)C2CCCCC2)c1)c1cnn(C)c1 (configuration not stated) | -9.44 |
| COc1ccc(F)cc1-c1ccccc1CC1CNCCNC1=O (configuration not stated) | 2.28 |
| Cn1nc(C2CCCN(Cc3cc(F)cc(F)c3)C2)c2nccnc21 (configuration not stated) | -1.82 |
| Cc1ccc(CN2Cc3ccccc3O[C@]3(CC[C@H](CO)CC3)C2)o1 | 52 |
| CCC(C)S(=O)(=O)N1CCc2nc(C3CCNCC3)ncc2C1 (configuration not stated) | -0.105 |
| Cc1cc(C)c2[nH]c(C)c(CC(=O)N(C)CCN(C)C)c2c1 | 1.29 |
| COc1ccc(CN(C)[C@@H]2COC[C@H]2c2ccc(F)cc2)c(OC)c1 | 0.309 |
| c1cnc2[nH]nc(C3CCN(Cc4ccsc4)CC3)c2c1 | -4.44 |
| Fc1ccc(F)c(CN2CCC(c3n[nH]c4ncccc34)CC2)c1 | -7.24 |
